Measured values reported in patent EP4803513A1, “SUBSTITUTED QUINAZOLINE COMPOUND, PREPARATION METHOD THEREFOR, PHARMACEUTICAL COMBINATION THEREOF, AND USE THEREOF” (Hongyun Biotech Co., Ltd., priority 2023, dated 2025).

How the values were obtained:
WT-BaF3 cells = assay: Cell antiproliferative activity assay (CCK-8), WT-BaF3 (broad-spectrum cytotoxicity); format: cell-based; details: 72 h; WT-BaF3 cells (IL-3 supplemented), CCK-8, 3 days incubation
Description: (§1) The activity of compounds against BRK kinase can be evaluated by their inhibition of the growth of the BRK kinase-stably transfected BaF3 cell line (BRK-BaF3) and wild-type BaF3 cells (WT-BaF3). […] The larger the ratio of the half-maximal growth inhibitory concentration (IC50) of a compound between WT-BaF3 and BRK-BaF3 cells, the better the selectivity of the compound.
(§2) BRK-BaF3, WT-BaF3, WEHI cell line, and breast cancer cell line T47D were cultured using RPMI 1640 Basal medium or DMEM (Dulbecco's Modified Eagle Medium) (Shanghai Peiyuan Biotechnology, L220KJ), supplemented with 10% FBS (Gibco, REF 10099-141C) and 1% P/S (Shanghai Peiyuan Biotechnology, S110JV), in an incubator (Thermo 3020) at 37°C with 5% CO2. Cell viability was above 95%. Cells were passaged at a 3:1 ratio every 3-4 days. For WT-BaF3 cells, WEHI cells were first cultured, and their culture supernatant was filtered through a 0.22 µm filter. This supernatant was added at 10% to the regular culture medium to supplement IL-3 required for WT-BaF3 cell proliferation, which served as the culture medium for WT-BaF3. For testing, cells were first collected and counted, then prepared into a cell suspension at 100,000 cells/mL and plated at 100 µL per well. Drug concentrations started from 10 µM and were serially diluted 3:1. After incubation for 3 days, 20 µL of CCK-8 detection reagent (Targetmol C005) was added to each well. After incubation for 2-4 hours, OD450 was measured using a microplate reader (Varioskan LUX, Thermo Scientific). After subtracting the blank background, the curve was fitted and the IC50 was calculated using XLfit software.

BRK-BaF3 cells = assay: Cell antiproliferative activity assay (CCK-8), BRK-BaF3; format: cell-based; details: 72 h, CCK-8, 3 days incubation
Description: as §1, §2

With Cc1nn(CCO)cc1Nc1ncc2cc(-c3cncc(N)n3)cc(C(C)C)c2n1 [I-93] the IC50 (WT-BaF3 cells) was over 2.5 µM and the IC50 (BRK-BaF3 cells) was 0.02 to 0.1 µM.
Compound Cc1cnc(C)c(-c2cc(C(C)C)c3nc(Nc4cn(CCO)nc4C)ncc3c2)n1 [I-96] has an IC50 (WT-BaF3 cells) of over 2.5 µM and an IC50 (BRK-BaF3 cells) of 0.02 to 0.1 µM.
Compound Cc1nccnc1-c1cc(C(C)C)c2nc(Nc3cnn(CCO)c3)ncc2c1 [I-97] has an IC50 (WT-BaF3 cells) of 0.5 to 2.5 µM and an IC50 (BRK-BaF3 cells) of at most 0.02 µM.
Cc1nccnc1-c1cc(C(C)C)c2nc(Nc3cn(CCO)nc3C(F)F)ncc2c1 [I-99] showed an IC50 (WT-BaF3 cells) of 0.5 to 2.5 µM and an IC50 (BRK-BaF3 cells) of at most 0.02 µM.
In the case of Cc1nn(CCCO)cc1Nc1ncc2cc(-c3nccnc3C)cc(C(C)C)c2n1 [I-100], the IC50 (WT-BaF3 cells) is reported as 0.5 to 2.5 µM and the IC50 (BRK-BaF3 cells) is reported as at most 0.02 µM.
Work on Cc1nn(CC(C)(C)O)cc1Nc1ncc2cc(-c3nccnc3C)cc(C(C)C)c2n1 [I-101] yielded an IC50 (WT-BaF3 cells) of over 2.5 µM and an IC50 (BRK-BaF3 cells) of at most 0.02 µM.
Cc1nccnc1-c1cc(C(C)C)c2nc(Nc3cnn(CCO)c3C)ncc2c1 [I-102] showed an IC50 (WT-BaF3 cells) of over 2.5 µM and an IC50 (BRK-BaF3 cells) of at most 0.02 µM.
Cc1nn(CCO)cc1Nc1ncc2cc(-c3nccnc3C)cc(C3CC3)c2n1 [I-103] gave an IC50 (WT-BaF3 cells) of 0.5 to 2.5 µM and an IC50 (BRK-BaF3 cells) of at most 0.02 µM.
With Cc1nn(CCO)cc1Nc1ncc2cc(-c3nccnc3Cl)cc(C3CC3)c2n1 [I-104] the IC50 (WT-BaF3 cells) was over 2.5 µM and the IC50 (BRK-BaF3 cells) was at most 0.02 µM.
Cc1nn(CCO)cc1Nc1ncc2cc(-c3nccnc3N)cc(C3CC3)c2n1 [I-105] was tested, and the IC50 (WT-BaF3 cells) was 0.5 to 2.5 µM and the IC50 (BRK-BaF3 cells) was at most 0.02 µM.
Compound COCCN(C)CCn1ncc(Nc2ncc3cc(-c4cc(=O)[nH]cc4C)cc(C(C)C)c3n2)c1C [III-55] has an IC50 (BRK-BaF3 cells) of at most 0.02 µM.
In the case of Cc1c[nH]c(=O)cc1-c1cc(C(C)C)c2nc(Nc3cn(CCN(C)CC(C)(C)O)nc3C)ncc2c1 [III-56], the IC50 (BRK-BaF3 cells) is reported as at most 0.02 µM.
With Cc1c[nH]c(=O)cc1-c1cc(C(C)C)c2nc(Nc3cnn(CCN(C)CC(C)(C)O)c3C)ncc2c1 [III-57] the IC50 (BRK-BaF3 cells) was at most 0.02 µM.
Work on Cc1c[nH]c(=O)cc1-c1cc(C(C)C)c2nc(Nc3cn(CCN4CCOC[C@@H]4C)nc3C)ncc2c1 [III-59] yielded an IC50 (BRK-BaF3 cells) of at most 0.02 µM.
With Cc1c[nH]c(=O)cc1-c1cc(C(C)C)c2nc(Nc3cnn(CCN4CCOC[C@@H]4C)c3C)ncc2c1 [III-60] the IC50 (BRK-BaF3 cells) was at most 0.02 µM.
Cc1c[nH]c(=O)cc1-c1cc(C(C)C)c2nc(Nc3cn(CCN4CCOC[C@H]4C)nc3C)ncc2c1 [III-61] gave an IC50 (BRK-BaF3 cells) of 0.02 to 0.1 µM.
With Cc1c[nH]c(=O)cc1-c1cc(C(C)C)c2nc(Nc3cnn(CCN4CCOC[C@H]4C)c3C)ncc2c1 [III-62] the IC50 (BRK-BaF3 cells) was at most 0.02 µM.
Cc1c[nH]c(=O)cc1-c1cc(C(C)C)c2nc(Nc3cn(CCN4CCCC4)nc3C)ncc2c1 [III-64] gave an IC50 (BRK-BaF3 cells) of at most 0.02 µM.
Work on Cc1c[nH]c(=O)cc1-c1cc(C(C)C)c2nc(Nc3cnn(CCN4CCCC4)c3C)ncc2c1 [III-65] yielded an IC50 (BRK-BaF3 cells) of at most 0.02 µM.
Compound Cc1c[nH]c(=O)cc1-c1cc(C(C)C)c2nc(Nc3cn(CC(=O)NCCF)nc3C)ncc2c1 [III-70] has an IC50 (BRK-BaF3 cells) of 0.02 to 0.1 µM.
Compound Cc1c[nH]c(=O)cc1-c1cc(C(C)C)c2nc(Nc3cn(CC(=O)NCC(F)F)nc3C)ncc2c1 [III-71] has an IC50 (BRK-BaF3 cells) of 0.02 to 0.1 µM.
Work on Cc1c[nH]c(=O)cc1-c1cc(C(C)C)c2nc(Nc3cn(CC(=O)NC4CCC4)nc3C)ncc2c1 [III-72] yielded an IC50 (BRK-BaF3 cells) of 0.02 to 0.1 µM.
With Cc1c[nH]c(=O)cc1-c1cc(C(C)C)c2nc(Nc3cn(CC(=O)NC4CC4)nc3C)ncc2c1 [III-73] the IC50 (BRK-BaF3 cells) was 0.02 to 0.1 µM.
Cc1c[nH]c(=O)cc1-c1cc(C(C)C)c2nc(Nc3cn(CC(=O)N(C)C(C)C)nc3C)ncc2c1 [III-74] showed an IC50 (BRK-BaF3 cells) of 0.02 to 0.1 µM.
C#CCN(C)C(=O)Cn1cc(Nc2ncc3cc(-c4cc(=O)[nH]cc4C)cc(C(C)C)c3n2)c(C)n1 [III-76] gave an IC50 (BRK-BaF3 cells) of 0.02 to 0.1 µM.
Cc1c[nH]c(=O)cc1-c1cc(C2CC2)c2nc(Nc3cn(C)nc3C)ncc2c1 [III-80] was tested, and the IC50 (BRK-BaF3 cells) was at most 0.02 µM.
Cc1c[nH]c(=O)cc1-c1cc(C2CC2)c2nc(Nc3cnn(C)c3C)ncc2c1 [III-81] showed an IC50 (BRK-BaF3 cells) of at most 0.02 µM.
Work on Cc1c[nH]c(=O)cc1-c1cc(C2CC2)c2nc(Nc3cn(C4COC4)nc3C)ncc2c1 [III-82] yielded an IC50 (BRK-BaF3 cells) of at most 0.02 µM.
In the case of CCc1cc(-c2cc(=O)[nH]cc2C)cc2cnc(Nc3cn(C)nc3C)nc12 [III-84], the IC50 (BRK-BaF3 cells) is reported as 0.02 to 0.1 µM.
Cc1ccc2[nH]ncc2c1-c1cc(C(C)C)c2nc(Nc3cn(C)nc3C)ncc2c1 [III-89] showed an IC50 (BRK-BaF3 cells) of at most 0.02 µM.
Work on Cc1nccnc1-c1cc(C(C)C)c2nc(Nc3cnn(C)c3C)ncc2c1 [III-100] yielded an IC50 (BRK-BaF3 cells) of at most 0.02 µM.
Work on Cc1cccnc1-c1cc(C(C)C)c2nc(Nc3cn(C)nc3C)ncc2c1 [III-119] yielded an IC50 (BRK-BaF3 cells) of at most 0.02 µM.
Work on Cc1nn(C)cc1Nc1ncc2cc(-c3cccnc3C(F)F)cc(C(C)C)c2n1 [III-123] yielded an IC50 (BRK-BaF3 cells) of at most 0.02 µM.
Cc1ccncc1-c1cc(C(C)C)c2nc(Nc3cn(C4CCN(C)CC4)nc3C)ncc2c1 [III-129] gave an IC50 (BRK-BaF3 cells) of at most 0.02 µM.
Work on Cc1ccc(C#N)cc1-c1cc(C(C)C)c2nc(Nc3cn(C4CCN(C)CC4)nc3C)ncc2c1 [III-131] yielded an IC50 (BRK-BaF3 cells) of at most 0.02 µM.
